Laboratory results from PubChem BioAssay (NCI).
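A five-concentration, 48-hour dose response in 96-well plates underlies each endpoint, interpolated linearly between surrounding concentrations. TGI denotes the concentration required for complete inhibition of growth.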

What was measured:
Assay in all cases: growth of human tumour cells (NCI), 48 h
BT-549 breast = test system: BT-549 breast
CAKI-1 renal = test system: CAKI-1 renal
NCI-H226 lung = test system: NCI-H226 lung
M14 melanoma = test system: M14 melanoma
U251 CNS = test system: U251 CNS
PC-3 prostate = test system: PC-3 prostate
786-0 renal = test system: 786-0 renal
HCT-116 colon = test system: HCT-116 colon
RPMI-8226 leukemia = test system: RPMI-8226 leukemia
HOP-62 NSCLC = test system: HOP-62 NSCLC
SF-268 CNS = test system: SF-268 CNS
K-562 leukemia = test system: K-562 leukemia
OVCAR-5 ovarian = test system: OVCAR-5 ovarian
HT29 colon = test system: HT29 colon
HCT-15 colon = test system: HCT-15 colon
MDA-MB-435 = test system: MDA-MB-435
NCI-H522 lung = test system: NCI-H522 lung
UACC-62 melanoma = test system: UACC-62 melanoma
MALME-3M melanoma = test system: MALME-3M melanoma
NCI-H23 lung = test system: NCI-H23 lung

Row | Structure (SMILES) | TGI (BT-549 breast) | TGI (CAKI-1 renal) | TGI (NCI-H226 lung) | TGI (M14 melanoma) | TGI (U251 CNS) | TGI (PC-3 prostate) | TGI (786-0 renal) | TGI (HCT-116 colon) | TGI (RPMI-8226 leukemia) | TGI (HOP-62 NSCLC) | TGI (SF-268 CNS) | TGI (K-562 leukemia) | TGI (OVCAR-5 ovarian) | TGI (HT29 colon) | TGI (HCT-15 colon) | TGI (MDA-MB-435) | TGI (NCI-H522 lung) | TGI (UACC-62 melanoma) | TGI (MALME-3M melanoma) | TGI (NCI-H23 lung)
1 | Cc1cccc(-c2cccc(COCc3cccc(-c4cccc(CO)n4)n3)n2)n1 | > 50 µM | > 50 µM | > 50 µM | > 50 µM | > 50 µM | > 50 µM | > 50 µM | > 50 µM | > 50 µM | > 50 µM | > 50 µM | > 50 µM | > 50 µM | > 50 µM | > 50 µM | > 50 µM | > 50 µM | > 50 µM |  | 
2 | Cc1cc2nn(C3CCCCO3)nc2cc1C (configuration not stated) | > 100 µM | > 100 µM | > 100 µM | > 100 µM | > 100 µM | > 100 µM | > 100 µM | > 100 µM |  | > 100 µM | > 100 µM | > 100 µM | > 100 µM | > 100 µM | > 100 µM | > 100 µM | > 100 µM | > 100 µM | > 100 µM | > 100 µM
3 | Cn1cc(S(=O)(=O)NC(=O)Nc2ccc(Cl)cc2)c(=O)c2ccc(Cl)cc21 | > 100 µM | > 100 µM | > 100 µM | > 100 µM | > 100 µM | > 100 µM | > 100 µM | > 100 µM |  | > 100 µM | > 100 µM | > 100 µM | > 100 µM | > 100 µM | > 100 µM | > 100 µM | 41.4 µM | > 100 µM | > 100 µM | > 100 µM
4 | CC(SC(=S)N(C)C)C(=O)Nc1nnc(-c2ccc(Cl)cc2)o1 (configuration not stated) | > 100 µM |  | > 100 µM | > 100 µM | > 100 µM | > 100 µM | 69.7 µM | > 100 µM | 66.6 µM | > 100 µM | > 100 µM | > 100 µM | > 100 µM | 51.9 µM | > 100 µM | > 100 µM |  | > 100 µM | > 100 µM | > 100 µM
5 | O=S(=O)(Nc1nc2ccccc2nc1Nc1cccc2ccccc12)c1ccccc1 | > 100 µM | > 100 µM | > 100 µM | > 100 µM | 30 µM | > 100 µM | 68.4 µM | > 100 µM | > 100 µM | 33 µM | > 100 µM | > 100 µM | > 100 µM |  |  | > 100 µM |  | > 100 µM | > 100 µM | 64.4 µM
6 | Cc1ccc(N/C(=C(/C(Cl)=C(Cl)Cl)[N+](=O)[O-])n2nnc3ccccc32)cc1 | 37.6 µM | 31.6 µM | 35.3 µM | 31.7 µM |  | 33.8 µM | 38.4 µM | 75.5 µM | 64.8 µM | 39.7 µM | 36.8 µM | > 100 µM | 41 µM | 42 µM | 52.3 µM | 40.2 µM |  |  | 29.9 µM | 43.8 µM
7 | CCOC(=O)CC[C@H](NC(=O)c1ccc(CNc2nc3cc(C(F)(F)F)ccc3nc2C(=O)OCC)cc1)C(=O)OCC | 70.3 µM | 29.5 µM |  | > 66.2 µM | 18.5 µM | > 89.3 µM | 18.8 µM | > 100 µM | > 100 µM | > 46 µM | 34.4 µM | > 100 µM | > 86 µM | > 100 µM | > 100 µM | > 100 µM | 29.1 µM | 43 µM | 50.3 µM | > 100 µM
